Values after ≈ are worked out from the molar mass of the structure shown. Read-outs that look alike come from different tables or passages of the source.
What was measured:
[1] = Stability evaluation: change in appearance under storage conditions; type: physicochemical
Text: In order to evaluate the change in appearance of the compounds according to Comparative Examples and Examples, it was observed after storing each compound in accordance with the conditions shown in Table 6 below.

[2] = Stability evaluation: change in the amount of related substances; type: physicochemical; conditions: for change (increase) in the amount of related substances: open state, room temperature, 3 days, FIG. 3
[3] = Solubility of the compound of formula (1) in organic solvents (HPLC); type: physicochemical
[4] = Stability evaluation: change in moisture content; type: physicochemical; conditions: open state, room temperature (20 to 25° C., 50% or less), 3 days vs initial; FIG. 2
Experimental: In order to evaluate the change in moisture content, the compounds according to Examples and Comparative Examples were stored in an open state at room temperature (20 to 25° C., 50% or less), and the change was measured by the difference between the initial moisture content and the moisture content after 3 days.

[5] = Change in appearance of the salts at room temperature for 24 hours; type: physicochemical; conditions: for Initial appearance: dried material; for Appearance (stored at R.T. for 24 hrs) / change in appearance (text summary of Table 4): room temperature, 24 hours
Experimental: In the case of the suspension and the gel, firstly it was vacuum dried under reduced pressure and secondly vacuum dried for 24 to 48 hours.

[6] = 1 day, Acceleration (40±2° C. and 75±5% RH)
[7] = 1 day, Long-term (25±2° C. and 60±5% RH)
[8] = 1 day, Room temperature (20 to 25° C., 50% or less)

CN(C)CCCNC(=O)/C(=C/CCCCC(=O)NO)COc1cccc2ccccc12 [Comparative Example 1, alkylcarbamoyl naphthalenyloxy octenoyl hydroxyamide]
Appearance [1, 6]: Gel-like | Appearance [1, 7]: Gel-like | Appearance [1, 8]: Gel-like | Appearance ([1]; 1 day, Severe (60±2° C.)): Gel-like | Appearance ([1]; Initial value): Foam | change in appearance (Table 6) ([1]; storage conditions of Table 6): changed from initial foam such as a sponge to a highly viscous liquid or gel structure | change (increase) in the amount of related substances [2]: about 10% | Solubility ([3]; 1,4-dioxane, 20° C.): 72.3 mg/mL (≈ 169 mM) | Solubility ([3]; 1,4-dioxane, 50° C.): 72.3 mg/mL (≈ 169 mM) | Solubility ([3]; 1-butanol, 20° C.): >58.8 mg/mL | Solubility ([3]; 2-propanol, 20° C.): 73.8 mg/mL (≈ 173 mM) | Solubility ([3]; 2-propanol, 50° C.): 77.3 mg/mL (≈ 181 mM) | Solubility ([3]; Acetone, 20° C.): 43.3 mg/mL (≈ 101 mM) | Solubility ([3]; Acetone, 50° C.): 43.7 mg/mL (≈ 102 mM) | Solubility ([3]; Acetonitrile, 20° C.): 6.1 mg/mL (≈ 14.3 mM) | Solubility ([3]; Acetonitrile, 50° C.): 16.5 mg/mL (≈ 38.6 mM) | Solubility ([3]; Butan-2-ol, 20° C.): 39.6 mg/mL (≈ 92.6 mM) | Solubility ([3]; Butan-2-ol, 50° C.): 72.0 mg/mL (≈ 168 mM) | Solubility ([3]; Chloroform, 20° C.): >80.7 mg/mL | Solubility ([3]; Dimethyl sulfoxide, 20° C.): >70.6 mg/mL | Solubility ([3]; Ethanol, 20° C.): >77.4 mg/mL | Solubility ([3]; Ethyl acetate, 20° C.): 4.6 mg/mL (≈ 10.8 mM) | Solubility ([3]; Ethyl acetate, 50° C.): 20.3 mg/mL (≈ 47.5 mM) | Solubility ([3]; Methanol, 20° C.): >68.4 mg/mL | Solubility ([3]; Methylene Ketone, 20° C.): 66.6 mg/mL (≈ 156 mM) | Solubility ([3]; Methylene Ketone, 50° C.): 69.7 mg/mL (≈ 163 mM) | Solubility ([3]; N,N-dimethylformamide, 20° C.): >76.6 mg/mL | Solubility ([3]; Propanol, 20° C.): >70.3 mg/mL | Solubility ([3]; Tert-butylmethyl ether, 20° C.): 0.8 mg/mL (≈ 1.87 mM) | Solubility ([3]; Tert-butylmethyl ether, 50° C.): 0.8 mg/mL (≈ 1.87 mM) | Solubility ([3]; Tetrahydrofuran, 20° C.): >74.0 mg/mL | Solubility ([3]; Toluene, 20° C.): 1.0 mg/mL (≈ 2.34 mM) | Solubility ([3]; Toluene, 50° C.): 3.3 mg/mL (≈ 7.72 mM) | increase in moisture content [4]: about 3% | Initial appearance [5]: Foam | Appearance (stored at R.T. for 24 hrs) [5]: Gel-like

CN(C)CCCNC(=O)/C(=C/CCCCC(=O)NO)COc1cccc2ccccc12.O=C(O)C(F)(F)F [Trifluoracetic acid]
Initial appearance [5]: Ge-1ike | Appearance (stored at R.T. for 24 hrs) [5]: Gel-like

O=C(O)c1ccc2ccccc2c1O [Naphthoic acid, 1-hydroxy-2]
Initial appearance [5]: Powder | Appearance (stored at R.T. for 24 hrs) [5]: Gel-like

O=S(=O)(O)c1ccccc1 [Benzensulfonic acid]
Initial appearance [5]: Foam | Appearance (stored at R.T. for 24 hrs) [5]: Gel-like

Cl [Hydrochloric acid]
Initial appearance [5]: Gel-like | Appearance (stored at R.T. for 24 hrs) [5]: Gel-like

CCS(=O)(=O)O [Ethanesulfonic acid]
Initial appearance [5]: Foam | Appearance (stored at R.T. for 24 hrs) [5]: Gel-like

CN(C)CCCNC(=O)/C(=C/CCCCC(=O)NO)COc1cccc2ccccc12.Cc1ccc(S(=O)(=O)O)cc1 [Toluensulfonic acid, para]
Initial appearance [5]: Foam | Appearance (stored at R.T. for 24 hrs) [5]: Gel-like

O=C(O)CCCC(=O)O [Glutaric acid]
Initial appearance [5]: Powder | Appearance (stored at R.T. for 24 hrs) [5]: Gel-like

O=C(O)CCC(=O)O [Succinic acid]
Initial appearance [5]: Powder | Appearance (stored at R.T. for 24 hrs) [5]: Gel-like

O=S(=O)(O)c1ccc2ccccc2c1 [Naphthalene-2-sulfonic acid]
Initial appearance [5]: Powder | Appearance (stored at R.T. for 24 hrs) [5]: Gel-like

O=C(O)c1ccccc1 [Benzoic acid]
Initial appearance [5]: Foam | Appearance (stored at R.T. for 24 hrs) [5]: Gel-like

CCCCCCCCCCCCCCCCCC(=O)O [Stearic acid]
Initial appearance [5]: Powder | Appearance (stored at R.T. for 24 hrs) [5]: Powder | change in appearance (text summary of Table 4) [5]: no change in appearance was observed

O=C(O)CC(=O)O [Malonic acid]
Initial appearance [5]: Foam | Appearance (stored at R.T. for 24 hrs) [5]: Gel-like

O=C(O)/C=C\C(=O)O [Maleic acid]
Initial appearance [5]: Foam | Appearance (stored at R.T. for 24 hrs) [5]: Gel-1ike

CN(C)CCCNC(=O)/C(=C/CCCCC(=O)NO)COc1cccc2ccccc12.O=C(O)[C@H](O)[C@@H](O)[C@H](O)[C@H](O)CO [Gluconic acid, (D−)]
Initial appearance [5]: Powder | Appearance (stored at R.T. for 24 hrs) [5]: Gel-like

CN(C)CCCNC(=O)/C(=C/CCCCC(=O)NO)COc1cccc2ccccc12.O=C(O)C(O)C(O)C(=O)O [Example 1, Alkylcarbamoyl Naphthalenyloxy Octenoyl Hydroxyamide Tartaric Acid Salt]
Appearance [1, 6]: Gel-like | Appearance [1, 7]: Gel-like | Appearance [1, 8]: Powder | Appearance ([1]; 1 day, Severe (60±2° C.)): Powder | Appearance ([1]; Initial value): Powder | Content (bottle package, 1 day, Acceleration (40±2° C. and 75±5% RH)): 89.1 | Content (bottle package, 1 day, Long-term (25±2° C. and 60±5% RH)): 99.1 | Content (bottle package, 3 days, Acceleration (40±2° C. and 75±5% RH)): 84.0 | Content (bottle package, 3 days, Long-term (25±2° C. and 60±5% RH)): 84.1 | Content (bottle package, 7 days, Acceleration (40±2° C. and 75±5% RH)): 78.5 | Content (bottle package, 7 days, Long-term (25±2° C. and 60±5% RH)): 78.5 | change in content (text summary of Tables 7 and 8) (open state and bottle package, all storage conditions): maintained constant at room temperature regardless of the packaging state | Content (open state, 1 day, Acceleration (40±2° C. and 75±5% RH)): 92.3 | Content (open state, 3 days, Severe (60±2° C.)): 97.2 | Content (open state, 7 days, Room temperature): 100.1 | Content (open state, 7 days, Severe (60±2° C.)): 89.1 | Content (open state, Initial value): 98.9 | Content (polyethylene bottle package (added silica gel), Initial value): 98.9 | amount of formation of the related substances ([2]; according to temperature and storage period, FIGS. 4 and 5): maintained in a certain range at a relatively low temperature | change (increase) in the amount of related substances [2]: 0.05% | increase in moisture content [4]: 2% | Initial appearance [5]: Powder | Appearance (stored at R.T. for 24 hrs) [5]: Powder | change in appearance (text summary of Table 4) [5]: no change in appearance was observed

O=C(O)CC(O)(CC(=O)O)C(=O)O [Citric acid]
Initial appearance [5]: Foam | Appearance (stored at R.T. for 24 hrs) [5]: Gel-like

CN(C)CCCNC(=O)/C(=C/CCCCC(=O)NO)COc1cccc2ccccc12.CS(=O)(=O)O [Methanensulfonic acid]
Initial appearance [5]: Foam | Appearance (stored at R.T. for 24 hrs) [5]: Gel-like

O=C(O)/C=C/C(=O)O [Fumaric acid]
Initial appearance [5]: Powder | Appearance (stored at R.T. for 24 hrs) [5]: Gel-like

O=S(=O)(O)O [Sulfuric acid]
Initial appearance [5]: Gel-like | Appearance (stored at R.T. for 24 hrs) [5]: Gel-like

CC(=O)O [Acetic acid]
Initial appearance [5]: Foam | Appearance (stored at R.T. for 24 hrs) [5]: Gel-like

O=C(O)CNC(=O)c1ccccc1 [Hippuric acid]
Initial appearance [5]: Foam | Appearance (stored at R.T. for 24 hrs) [5]: Gel-like

— patent US11655207B2, “Pharmaceutically acceptable salt of alkylcarbamoyl naphthalenyloxy octenoylhydroxy amide or of derivative thereof and method for preparing same” (CRYSTALGENOMICS, INC., priority 2017, dated 2023)
